Assays:
Test in all cases: cells
KARPAS-299 = conditions: Homo sapiens
Description: Antiproliferative activity against human KARPAS-299 cells harbouring wild type ALK assessed as reduction in cell viability by Celltitre-Glo luminescent assay

BaF3 [1] = conditions: Mus musculus
Description: Antiproliferative activity against mouse BaF3 cells harbouring ALK wild type assessed as reduction in cell viability by Celltitre-Glo luminescent assay

BaF3 [2] = conditions: Mus musculus; remark: listed apart in the source
Description: Antiproliferative activity against mouse BaF3 cells harbouring ALK L1196M mutant assessed as reduction in cell viability by Celltitre-Glo luminescent assay

BaF3 [3] = conditions: Mus musculus; remark: listed apart in the source
Description: Antiproliferative activity against mouse BaF3 cells harbouring ALK C1156Y mutant assessed as reduction in cell viability by Celltitre-Glo luminescent assay

IC50 (KARPAS-299) | IC50 (BaF3 [1]) | IC50 (BaF3 [2]) | IC50 (BaF3 [3]) | SMILES
36 nM | 11 nM | 27 nM | 30 nM | COc1cc(C2CCC3(CC2)CCN(C)CC3)ccc1Nc1ncc(Cl)c(Nc2ccccc2P(C)(C)=O)n1
87 nM | 10 nM | 12 nM | 15 nM | COc1cc(N2CCC3(CCN(C)CC3)CC2)c(Cl)cc1Nc1ncc(Cl)c(Nc2ccccc2P(C)(C)=O)n1
62 nM |  |  |  | COc1cc(N2CCC3(CCN(C)CC3)CC2)c(C)cc1Nc1ncc(Cl)c(Nc2ccccc2P(C)(C)=O)n1

Reference: ChEMBL document CHEMBL5143665, “Discovery and preclinical evaluations of WX-0593, a novel ALK inhibitor targeting crizotinib-resistant mutations” (Bioorg Med Chem Lett, 2022)
